{
  "source": "patent US20040198819A1",
  "about": "“Biological response modifier composition and uses thereof” (priority 2001, published 2004)",
  "key": {"peritoneal macrophages [1]": {"test_system": "peritoneal macrophages", "assay": "TNF-α release by mouse peritoneal macrophages (ELISA)", "type": "cell-based, C57BL/6 mice", "details": "in vitro culture", "protocol": "(§1) Peritoneal macrophages are harvested from C57BL/6 mice 72 hours after intraperitoneal injection of 1.5 ml of 4% protease peptone. The macrophages are then stimulated in vitro with medium alone, 50 ng LPS, or BRM. Measurements of the stimulation are performed with respect to TNF (by ELISA) and NO (by spectrophotometric assay using the Greiss reagent) levels in duplicate experiments.\nIn vitro synergy of BRM with IFN-γ for TNF-α release is studied using the same peritoneal mouse macrophages derived from C57BL/6 mice treated as above. […] The same macrophages stimulated with either LPS or IFN-γ release almost 3000 pg/ml of TNF-α."}, "peritoneal macrophages [2]": {"test_system": "peritoneal macrophages", "assay": "Nitric oxide release by mouse peritoneal macrophages (Greiss reagent)", "type": "cell-based, C57BL/6 mice", "details": "in vitro", "protocol": "as §1\nIn vitro synergy of BRM with LPS for nitric oxide (NO) is addressed in the same procedure as above, except NO is determined in the supernatant of the treated macrophages. As above, the assay for NO is spectrophotometric and uses a Greiss reagent.\nIn vitro synergy of BRM with IFN-γ for NO release is studied, using the same peritoneal mouse macrophages derived from C57BL/6 mice treated as above."}},
  "data": [
    {"substance": "IFN-γ: interferon gamma, conventional macrophage activator", "values": [
      {"measurement": "release of TNF-α", "setting": "peritoneal macrophages [1]", "result": "~3000", "unit": "pg/mL"},
      {"measurement": "release of NO by macrophages, stimulus alone", "setting": "peritoneal macrophages [2]", "result": "enhanced NO production"}
    ]}
  ]
}
